Data set [1] has as its system Liver microsomes. In words: Metabolic stability of the compound in human liver microsomes assessed as compound remaining. The format is ADME, Microsome. (In general: Microsomes from liver hold many membrane-bound enzymes, among them those of drug oxidation.)
Data set [2] is filed under the species Homo sapiens. Kind of data set: Inhibition of PKA at 10 uM.
The target in data set [3] is Ephrin type-B receptor 4 (Homo sapiens) (UniProt P54760). Kind of data set: Inhibition of EphB4 at 10 uM.
For data set [4], the target named is Tyrosine-protein kinase JAK2 (Homo sapiens) (UniProt O60674). In words: Inhibition of Jak2 at 10 uM.
The species named for data set [5] is Homo sapiens. In words: Inhibition of PKB at 10 uM.
Data set [6] concerns the target Cyclin-dependent kinase 2 (Homo sapiens) (UniProt P24941). Kind of data set: Inhibition of CDK2A at 10 uM.
The target of data set [7] is T1, Vascular endothelial growth factor receptor 2 (Homo sapiens, UniProt P35968). In words: Inhibition of VEGFR2 expressed in porcine aortic endothelial cells. It counts as cell-based, Endothelial cell.
T1 sequence (P35968 whole entry): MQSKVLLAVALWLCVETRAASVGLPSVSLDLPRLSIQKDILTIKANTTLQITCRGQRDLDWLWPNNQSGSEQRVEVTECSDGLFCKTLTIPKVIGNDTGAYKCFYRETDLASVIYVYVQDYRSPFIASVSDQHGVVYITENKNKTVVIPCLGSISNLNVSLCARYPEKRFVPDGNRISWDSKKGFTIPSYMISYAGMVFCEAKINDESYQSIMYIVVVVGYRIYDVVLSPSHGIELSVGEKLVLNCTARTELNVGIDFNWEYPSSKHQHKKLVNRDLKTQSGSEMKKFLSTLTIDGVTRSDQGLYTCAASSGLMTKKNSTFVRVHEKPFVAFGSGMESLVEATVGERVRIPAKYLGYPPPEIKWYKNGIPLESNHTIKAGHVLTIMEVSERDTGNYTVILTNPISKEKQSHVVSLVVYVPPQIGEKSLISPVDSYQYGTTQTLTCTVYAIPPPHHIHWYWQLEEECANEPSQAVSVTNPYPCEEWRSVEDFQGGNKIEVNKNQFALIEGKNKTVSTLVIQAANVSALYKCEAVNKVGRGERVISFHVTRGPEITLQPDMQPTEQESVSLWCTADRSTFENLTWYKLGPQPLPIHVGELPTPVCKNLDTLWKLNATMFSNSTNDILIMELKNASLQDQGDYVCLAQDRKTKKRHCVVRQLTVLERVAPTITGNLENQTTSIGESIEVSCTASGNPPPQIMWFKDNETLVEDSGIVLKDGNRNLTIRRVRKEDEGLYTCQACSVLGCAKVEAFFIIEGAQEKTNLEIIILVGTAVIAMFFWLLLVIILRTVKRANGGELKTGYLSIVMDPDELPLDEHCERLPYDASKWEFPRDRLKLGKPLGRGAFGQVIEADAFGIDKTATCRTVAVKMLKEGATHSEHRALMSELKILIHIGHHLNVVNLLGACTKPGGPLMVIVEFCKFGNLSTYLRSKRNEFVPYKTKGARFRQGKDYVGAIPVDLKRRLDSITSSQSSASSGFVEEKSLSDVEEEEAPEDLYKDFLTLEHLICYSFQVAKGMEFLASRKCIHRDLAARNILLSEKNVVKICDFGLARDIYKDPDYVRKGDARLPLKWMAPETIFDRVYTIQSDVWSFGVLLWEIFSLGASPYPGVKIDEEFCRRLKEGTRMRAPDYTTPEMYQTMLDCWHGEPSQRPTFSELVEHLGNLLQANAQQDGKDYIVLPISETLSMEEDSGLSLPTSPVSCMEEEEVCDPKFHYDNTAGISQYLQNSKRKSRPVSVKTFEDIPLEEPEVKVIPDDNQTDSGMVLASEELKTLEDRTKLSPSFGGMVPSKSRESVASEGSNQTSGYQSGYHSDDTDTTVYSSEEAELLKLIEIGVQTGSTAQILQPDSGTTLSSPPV
Data set [8] concerns Serine/threonine-protein kinase B-raf (Homo sapiens), P15056 [V600E]. In words: Inhibition of B-Raf V599E mutant at 10 uM.
Data set [9] relates to HUVEC. Kind of data set: Cytotoxicity against HUVEC co-cultured with vascular smooth muscle cells assessed as rounded-up, unconnected and unicellular morphology phenotype. The note with it: human. The format is cell-based.
Data set [10] deals with Proto-oncogene tyrosine-protein kinase receptor Ret (Homo sapiens) (UniProt P07949). In words: Inhibition of Ret at 10 uM.
Data set [11] deals with Hepatocyte growth factor receptor (Homo sapiens) (UniProt P08581). In words: Inhibition of Met at 10 uM.
The target in data set [12] is 3-phosphoinositide-dependent protein kinase 1 (Homo sapiens) (UniProt O15530). Kind of data set: Inhibition of PDK1 at 10 uM.
Sequence of 3-phosphoinositide-dependent protein kinase 1 (Homo sapiens) (O15530 whole entry, looked up): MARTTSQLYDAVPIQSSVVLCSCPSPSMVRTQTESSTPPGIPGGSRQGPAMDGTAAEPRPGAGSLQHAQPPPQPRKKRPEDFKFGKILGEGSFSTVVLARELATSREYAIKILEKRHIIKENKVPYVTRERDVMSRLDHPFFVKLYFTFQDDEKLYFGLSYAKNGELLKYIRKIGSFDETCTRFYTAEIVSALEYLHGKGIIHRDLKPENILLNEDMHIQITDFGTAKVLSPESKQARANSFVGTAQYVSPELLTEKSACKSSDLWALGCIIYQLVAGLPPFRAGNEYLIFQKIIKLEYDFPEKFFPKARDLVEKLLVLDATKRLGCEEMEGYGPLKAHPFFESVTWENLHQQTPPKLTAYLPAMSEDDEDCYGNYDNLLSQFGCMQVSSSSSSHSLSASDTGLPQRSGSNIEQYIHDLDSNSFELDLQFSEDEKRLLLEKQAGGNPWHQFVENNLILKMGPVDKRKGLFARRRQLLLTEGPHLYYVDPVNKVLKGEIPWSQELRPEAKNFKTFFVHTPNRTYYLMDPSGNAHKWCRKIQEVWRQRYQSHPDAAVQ
For data set [13], the target named is T1, Vascular endothelial growth factor receptor 2. In words: Inhibition of VEGFR-2 at 10 uM.
The target in data set [14] is Epidermal growth factor receptor (Homo sapiens) (UniProt P00533). In words: Inhibition of HER-1 at 10 uM.
Sequence of Epidermal growth factor receptor (Homo sapiens) (P00533 whole entry): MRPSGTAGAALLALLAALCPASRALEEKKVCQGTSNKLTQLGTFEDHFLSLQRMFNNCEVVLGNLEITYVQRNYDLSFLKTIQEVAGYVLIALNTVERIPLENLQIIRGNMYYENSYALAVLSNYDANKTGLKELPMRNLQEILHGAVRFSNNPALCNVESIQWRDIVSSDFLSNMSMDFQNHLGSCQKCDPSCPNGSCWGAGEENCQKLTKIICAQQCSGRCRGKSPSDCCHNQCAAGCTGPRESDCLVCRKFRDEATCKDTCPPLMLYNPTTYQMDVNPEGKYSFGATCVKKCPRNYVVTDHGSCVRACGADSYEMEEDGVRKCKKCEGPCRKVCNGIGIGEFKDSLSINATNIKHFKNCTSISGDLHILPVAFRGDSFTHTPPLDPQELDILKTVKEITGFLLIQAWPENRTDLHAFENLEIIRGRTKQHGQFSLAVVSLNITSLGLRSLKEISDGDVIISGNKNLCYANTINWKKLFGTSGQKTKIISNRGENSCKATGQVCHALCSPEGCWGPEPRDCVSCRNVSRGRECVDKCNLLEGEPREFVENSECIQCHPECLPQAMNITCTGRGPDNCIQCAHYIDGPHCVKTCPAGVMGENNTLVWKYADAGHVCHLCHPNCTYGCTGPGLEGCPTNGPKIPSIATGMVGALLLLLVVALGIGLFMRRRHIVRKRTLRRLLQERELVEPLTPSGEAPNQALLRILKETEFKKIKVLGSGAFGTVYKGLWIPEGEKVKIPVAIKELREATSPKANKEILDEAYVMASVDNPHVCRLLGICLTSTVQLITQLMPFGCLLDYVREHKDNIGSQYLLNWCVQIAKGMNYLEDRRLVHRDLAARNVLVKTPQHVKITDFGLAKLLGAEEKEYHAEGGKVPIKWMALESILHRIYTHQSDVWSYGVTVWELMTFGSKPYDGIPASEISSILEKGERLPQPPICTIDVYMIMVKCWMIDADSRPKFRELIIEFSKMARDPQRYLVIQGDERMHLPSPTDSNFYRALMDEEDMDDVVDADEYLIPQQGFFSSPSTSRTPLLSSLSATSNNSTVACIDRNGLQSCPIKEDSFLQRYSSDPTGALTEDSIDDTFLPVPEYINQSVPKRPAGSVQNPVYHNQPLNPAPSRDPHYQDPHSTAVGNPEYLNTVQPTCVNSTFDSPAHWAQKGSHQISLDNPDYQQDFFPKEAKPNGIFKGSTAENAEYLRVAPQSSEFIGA
Data set [15] has as its target Insulin-like growth factor 1 receptor (Homo sapiens) (UniProt P08069). Kind of data set: Inhibition of IGF-1R at 10 uM.
Data set [16] deals with Receptor-type tyrosine-protein kinase FLT3 (Homo sapiens) (UniProt P36888). In words: Inhibition of Flt-3 at 10 uM.
Data set [17] addresses Angiopoietin-1 receptor (Homo sapiens) (UniProt Q02763). Kind of data set: Inhibition of Tek at 10 uM.
The test system of data set [18] is HUVEC. Kind of data set: Antiangiogenic activity in HUVEC co-cultured with vascular smooth muscle cells assessed as inhibition of network formation at 1.8 to 16 uM after 72 hrs. It counts as functional, cell-based. The note with it: Homo sapiens.
The species named for data set [19] is Danio rerio. In words: Toxicity in embryos of zebrafish assessed as induction of growth malformation at 0.5 to 2 uM treated 16 hrs post fertilization measured after 24 hrs. It counts as organism-based. Particulars: in vivo.
The target in data set [20] is Focal adhesion kinase 1 (Homo sapiens) (UniProt Q05397). In words: Inhibition of FAK at 10 uM.
Data set [21] deals with Tyrosine-protein kinase receptor UFO (Homo sapiens) (UniProt P30530). In words: Inhibition of Axl at 10 uM.
Data set [22] addresses Proto-oncogene tyrosine-protein kinase Src (Homo sapiens) (UniProt P12931). Kind of data set: Inhibition of Src at 10 uM.
For data set [23], the species on record is Homo sapiens. In words: Inhibition of FGFR3 […] mutant at 10 uM.
A short description of data set [24]: Permeability of the compound assessed as membrane retention by PAMPA. The format is ADME. (In PAMPA a lipid-coated filter parts donor from acceptor wells.)
Data set [25] has as its system HUVEC. In words: Antiangiogenic activity in HUVEC co-cultured with vascular smooth muscle cells assessed as inhibition of cell growth at […] after 72 hrs. The format is functional, cell-based. The note with it: Homo sapiens.
In data set [26] the test system is HUVEC. In words: Antiangiogenic activity in HUVEC co-cultured with vascular smooth muscle cells assessed as inhibition of network formation at 1.8 to 15 uM after 72 hrs. It counts as functional, cell-based. Particulars: Homo sapiens.
In data set [27] the test system is HUVEC. In words: Antiangiogenic activity in HUVEC co-cultured with vascular smooth muscle cells assessed as inhibition of network formation at […] after 72 hrs. It counts as functional, cell-based. Particulars: Homo sapiens.
Data set [28] can be described thus: Apparent permeability of the compound assessed as membrane permeation by PAMPA. It counts as ADME.
For data set [29], the target named is Proto-oncogene tyrosine-protein kinase Src (Homo sapiens) (UniProt P12931). Kind of data set: Inhibition of c-Src at 100 uM.
Sequence of Proto-oncogene tyrosine-protein kinase Src (Homo sapiens) (P12931 2-536 limits assumed): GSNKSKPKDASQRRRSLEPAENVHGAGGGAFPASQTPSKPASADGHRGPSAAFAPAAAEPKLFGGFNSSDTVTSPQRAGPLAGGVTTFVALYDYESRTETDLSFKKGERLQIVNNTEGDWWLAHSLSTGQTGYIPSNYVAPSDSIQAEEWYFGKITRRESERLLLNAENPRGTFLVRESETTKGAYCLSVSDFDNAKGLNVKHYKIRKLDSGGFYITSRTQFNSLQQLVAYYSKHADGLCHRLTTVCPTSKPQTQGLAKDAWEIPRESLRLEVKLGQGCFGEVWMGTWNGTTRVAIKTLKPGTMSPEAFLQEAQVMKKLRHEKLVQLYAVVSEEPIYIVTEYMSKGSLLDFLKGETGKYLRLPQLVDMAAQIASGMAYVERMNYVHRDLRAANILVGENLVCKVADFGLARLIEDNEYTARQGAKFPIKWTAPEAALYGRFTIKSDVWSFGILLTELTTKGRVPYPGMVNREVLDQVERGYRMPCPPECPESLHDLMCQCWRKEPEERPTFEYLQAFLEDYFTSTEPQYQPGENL
For data set [30], the system named is HUVEC. Kind of data set: Cytotoxicity against HUVEC co-cultured with vascular smooth muscle cells assessed as cell death at 16 uM. The format is cell-based. The note with it: human.
In data set [31] the target is Tyrosine-protein kinase ABL1 (Homo sapiens, UniProt P00519). Kind of data set: Inhibition of Abl.
For data set [32], the system named is HUVEC. In words: Antiangiogenic activity in HUVEC co-cultured with vascular smooth muscle cells assessed as inhibition of network formation at 1.8 after 72 hrs. It counts as functional, cell-based. The note with it: Homo sapiens.
Data set [33] concerns HUVEC. In words: Antiangiogenic activity in HUVEC co-cultured with vascular smooth muscle cells assessed as inhibition of network formation at 10 to 15 uM after 72 hrs. It counts as functional, cell-based. Particulars: Homo sapiens.

Each structure is given as a SMILES string. Activity calls are given as the source filed them. The calls are words filed in the database; no cut-off is given here.

The values that follow come from ChEMBL document CHEMBL2069178, “A combined targeted/phenotypic approach for the identification of new antiangiogenics agents active on a zebrafish model: from in silico screening to cyclodextrin formulation” (Bioorg Med Chem Lett, 2012).

One may read the inhibition as the percentage by which the read-out fell short of the control. The term IC50 denotes the concentration needed to halve the response being measured. Read a high IC50 as lower potency. What is called Papp is the rate of passage across a membrane or cell layer, normalised by area and donor concentration. In general, Ki refers to a measure of affinity in units of concentration, obtained from inhibition or displacement. A higher Ki goes with lower affinity.

Sequence of Insulin-like growth factor 1 receptor (Homo sapiens) (P08069 31-736 limits assumed): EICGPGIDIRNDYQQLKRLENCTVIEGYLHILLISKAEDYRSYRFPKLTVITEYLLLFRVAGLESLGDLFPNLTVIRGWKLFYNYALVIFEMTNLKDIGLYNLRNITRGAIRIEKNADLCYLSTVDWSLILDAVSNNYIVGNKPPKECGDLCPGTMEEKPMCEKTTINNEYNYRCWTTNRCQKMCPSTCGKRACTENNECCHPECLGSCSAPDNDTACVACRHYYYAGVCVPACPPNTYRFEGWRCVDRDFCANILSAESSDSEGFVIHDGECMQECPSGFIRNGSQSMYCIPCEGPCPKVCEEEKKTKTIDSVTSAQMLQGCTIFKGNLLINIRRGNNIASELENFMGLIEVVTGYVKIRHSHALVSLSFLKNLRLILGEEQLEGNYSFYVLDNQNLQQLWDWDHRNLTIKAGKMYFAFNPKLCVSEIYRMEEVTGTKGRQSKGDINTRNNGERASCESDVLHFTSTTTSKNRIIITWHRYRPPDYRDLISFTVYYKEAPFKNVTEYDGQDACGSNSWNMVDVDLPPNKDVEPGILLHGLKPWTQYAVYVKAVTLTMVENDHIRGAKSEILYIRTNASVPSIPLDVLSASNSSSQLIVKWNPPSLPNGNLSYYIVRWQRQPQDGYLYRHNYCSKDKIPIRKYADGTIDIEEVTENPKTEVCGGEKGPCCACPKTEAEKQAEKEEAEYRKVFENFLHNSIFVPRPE
Sequence of Insulin-like growth factor 1 receptor (Homo sapiens) (P08069 741-1367 limits assumed): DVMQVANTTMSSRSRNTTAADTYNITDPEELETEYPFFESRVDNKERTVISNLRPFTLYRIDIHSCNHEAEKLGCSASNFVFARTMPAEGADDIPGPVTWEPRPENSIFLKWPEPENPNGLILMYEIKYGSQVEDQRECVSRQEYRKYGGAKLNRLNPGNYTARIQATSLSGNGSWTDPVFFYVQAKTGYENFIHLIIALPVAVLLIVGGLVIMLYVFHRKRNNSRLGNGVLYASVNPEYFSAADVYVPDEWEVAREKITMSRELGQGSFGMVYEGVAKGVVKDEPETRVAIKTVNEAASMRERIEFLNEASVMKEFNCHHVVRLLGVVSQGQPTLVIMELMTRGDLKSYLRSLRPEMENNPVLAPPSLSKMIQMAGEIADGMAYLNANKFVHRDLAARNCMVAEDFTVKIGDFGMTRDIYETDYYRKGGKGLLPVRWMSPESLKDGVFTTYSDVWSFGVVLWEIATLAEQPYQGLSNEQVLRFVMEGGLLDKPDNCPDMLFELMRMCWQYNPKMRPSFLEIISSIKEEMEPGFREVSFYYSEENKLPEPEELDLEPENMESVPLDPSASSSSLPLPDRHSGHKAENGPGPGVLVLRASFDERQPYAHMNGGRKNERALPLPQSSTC

As for `ClC(Cn1ncc2c(NCc3ccccc3)ncnc21)c1ccccc1` (stereo unspecified), in data set [1], the Stability came out at 82%. Further, the inhibition in data set [2] was 0%; in [3], 25%; in data set [4], 6%; in data set [5], 17%; in [6], 8%; in data set [8], 42%. The inhibition in [10] amounted to 5%; in data set [11], 10%; in data set [12], 0%; in data set [13], 29%; in data set [14], 56%; in data set [15] it was 0%. Moreover, the inhibition in data set [16] was found to be 13%; in data set [17], 6%; in [20], 0%; in [21], 8%; in [22] it was 89%; in data set [23], 0%. The same compound yielded an IC50 in data set [7] of 1000 nM. The Activity result in data set [9] is recorded as “Non-toxic”; in data set [19] it was “Toxic”. For the same compound, the inhibition entry in data set [18] is “Active”. Further, the permeability in data set [24] is on record as 6%.

Take `Cc1nc(Nc2ncc(C(=O)Nc3c(C)cccc3Cl)s2)cc(N2CCN(CCO)CC2)n1`: the inhibition entry in data set [25] and in [26] was “Active” each time. For the same compound, in data set [27], the inhibition entry is “inactive”.

In the case of `Clc1cccc(Nc2nc(SCCN3CCOCC3)nc3c2cnn3CC(Cl)c2ccccc2)c1` (stereo unspecified), the Stability in [1] is 92.5%. Also, the Activity entry is on record as “Non-toxic” in data set [9] and “Toxic” in data set [19]. Besides, the Papp in data set [28] was found to be 3 ×10⁻⁶ cm/s. Besides, the inhibition result in data set [18] is “Active”. In addition, the permeability in data set [24] stood at 47.7%.

In the case of `ClC(Cn1ncc2c(NCCc3ccccc3)nc(SCCN3CCOCC3)nc21)c1ccccc1` (stereo unspecified), the inhibition entry in data set [29] was “inactive”.

In the case of `CSc1nc(NCCc2ccccc2)c2cnn(CC(Cl)c3ccccc3)c2n1` (stereo unspecified), the Activity result in [30] is on record as “Toxic”.

`C(=C/n1ncc2c(NCCc3ccccc3)ncnc21)/c1ccccc1`: the Ki in [31] was 9.75 µM. In data set [29], the inhibition entry was “inactive”.

As for `Cc1cn(-c2cc(NC(=O)c3ccc(C)c(Nc4nccc(-c5cccnc5)n4)c3)cc(C(F)(F)F)c2)cn1`, the inhibition result in data set [25] and in data set [33] was “Active” in each case. Further, the inhibition entry in data set [32] and in data set [27] was “inactive” each time.
